Measurements from US20230263822A1, “MODULATION OF FACTOR 11 EXPRESSION” (Ionis Pharmaceuticals, Inc., priority 2008, published 2023).

Experiments:
[1] = test system: IL-1β, IL-6, IFN-γ, TNF-α, IL-8, MIP-1α, MCP-1, MIP-1β, RANTES; assay: Cytokine and chemokine assays in cynomolgus monkeys (Example 46); type: in vivo
In short: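 Male and female monkeys, four per group, received antisense oligonucleotide s.c. at 25 mg/kg three times weekly in week 1, then twice weekly through week 8, against a PBS control. Blood was sampled 14 days pre-dose and on day 55, using primate antibodies (IL-1β, IL-6, IFN-γ, TNF-α) or cross-reacting human antibodies (others).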

Factor 11 protein = Factor 11 protein in monkey plasma by sandwich ELISA (Example 46); type: in vivo, cynomolgus monkeys; settings: cynomolgus monkeys, 25 mg/kg
In short: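 Monkeys (2 male, 2 female per group) dosed s.c. with antisense oligonucleotide at 25 mg/kg, three times weekly in week 1 then twice weekly through week 8; PBS controls. Plasma Factor 11 measured by sandwich ELISA (1:50 dilution, OPD, 490 nm); expressed as % reduction versus PBS.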

[2] = Hematology assays in cynomolgus monkeys (Example 46); type: in vivo
In short: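 Two male and two female monkeys per group received antisense oligonucleotide subcutaneously at 25 mg/kg, three times weekly in week 1 then twice weekly through week 8; PBS controls dosed identically. Blood sampled pre-dose and repeatedly during dosing for PT, aPTT and hematologic factors; necropsy on day 55.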

human Factor 11 mRNA = assay: Dose-dependent inhibition of human Factor 11 in HepB3 cells, electroporation (Example 7); type: cell-based; settings: for percent inhibition of human Factor 11 mRNA relative to untreated control cells: ~16 hours
Description: The gapmers were also transfected via electroporation and their dose dependent inhibition of human Factor 11 mRNA was measured. Cells were plated at a density of 20,000 cells per well and transfected via electroporation with 41.15 nM, 123.457 nM, 370.37 nM, 1111.11 nM, 3333.33 nM, and 10,000 nM concentrations of antisense oligonucleotide, as specified in Table 15. After a treatment period of approximately 16 hours, RNA was isolated from the cells and human Factor 11 mRNA levels were measured by quantitative real-time PCR. Human Factor 11 primer probe set RTS 2966 was used to measure mRNA levels. Factor 11 mRNA levels were adjusted according to total RNA content, as measured by RIBOGREEN. Results are presented as percent inhibition of human Factor 11, relative to untreated control cells.

[3] = Tolerability in Sprague-Dawley rats: body weight and organ weight (Example 35); type: in vivo; settings: 50 mg/kg s.c. twice per week for 6 weeks; for Percent change: Body weight: percent change over the weights at the start of the study; for Percent change in organ weight: Kidney / Percent change in organ weight: Liver / Percent change in organ weight: Spleen: vs saline control, normalized to body weight
Excerpt: Urine samples were taken before the start of treatment.
The body weights are presented in Table 71 and are expressed as a percent change over the weights taken at the start of the study.

[4] = day-14 (before start of treatment)

Substance “ISIS 416858: MOE gapmer, nucleobases 1275 to 1318 of SEQ ID NO: 1 (Table 8) (antisense ACGGCATTGGTGCACAGTTT; MOE gapmer, wing and gap sizes not given here)” has an IFN-γ level ([1]; day 55) of 9 pg/mL, an IL-1ß level ([1]; day 55) of 28 pg/mL and an IL-6 level ([1]; day 55) of 1 pg/mL. The IL-8 level ([1]; day 55) was 167 pg/mL, the MCP-1 level ([1]; day 55) was 512 pg/mL and the MIP-1ß level ([1]; day 55) was 47 pg/mL. For the same substance, the MIP-1α level ([1]; day 55) was 11 pg/mL, the RANTES level ([1]; day 55) was 5925 pg/mL and the TNF-α level ([1]; day 55) was 15 pg/mL. For the same substance, the IFN-γ level [1, 4] was 32 pg/mL, the IL-1ß level [1, 4] was 103 pg/mL and the IL-6 level [1, 4] was 0 pg/mL. The IL-8 level [1, 4] was 224 pg/mL, the MCP-1 level [1, 4] was 328 pg/mL and the MIP-1ß level [1, 4] was 37 pg/mL. The MIP-1α level [1, 4] was 11 pg/mL, the RANTES level [1, 4] was 6521 pg/mL and the TNF-α level [1, 4] was 4 pg/mL. For the same substance, the “Factor 11 protein levels in plasma” value (Factor 11 protein) was “time-dependent decrease in protein levels”, the HCT ([2]; Day 17) was 43% and the MCH ([2]; Day 17) was 23.1 pg. It also gave an MCHC ([2]; Day 17) of 29.9 g/dL, an MCV ([2]; Day 17) of 78 fL and an RBC count ([2]; Day 17) of 5.6e+06 µL⁻¹. For the same substance, the WBC count ([2]; Day 17) was 10000 µL⁻¹, the hemoglobin content ([2]; Day 17) was 13.0 g/dL and the monocytes ([2]; Day 17) was 4.0%. For the same substance, the neutrophils ([2]; Day 17) was 54%, the platelet count ([2]; Day 17) was 358 ×100/μL and the HCT ([2]; Day 31) was 43%. The MCH ([2]; Day 31) was 23.0 pg, the MCHC ([2]; Day 31) was 31.0 g/dL and the MCV ([2]; Day 31) was 76 fL. For the same substance, the RBC count ([2]; Day 31) was 5.6e+06 µL⁻¹, the WBC count ([2]; Day 31) was 9000 µL⁻¹ and the hemoglobin content ([2]; Day 31) was 12.8 g/dL. For the same substance, the monocytes ([2]; Day 31) was 4.7%, the neutrophils ([2]; Day 31) was 54% and the platelet count ([2]; Day 31) was 289 ×100/μL. The HCT ([2]; Day 45) was 41%, the MCH ([2]; Day 45) was 22.2 pg and the MCHC ([2]; Day 45) was 30.3 g/dL. It also gave an MCV ([2]; Day 45) of 75 fL, an RBC count ([2]; Day 45) of 5.5e+06 µL⁻¹ and a WBC count ([2]; Day 45) of 8000 µL⁻¹. For the same substance, the hemoglobin content ([2]; Day 45) was 12.3 g/dL, the monocytes ([2]; Day 45) was 4.6% and the neutrophils ([2]; Day 45) was 61%. For the same substance, the platelet count ([2]; Day 45) was 287 ×100/μL, the HCT ([2]; Day 55) was 39% and the MCH ([2]; Day 55) was 22.8 pg. For the same substance, the MCHC ([2]; Day 55) was 30.4 g/dL, the MCV ([2]; Day 55) was 75 fL and the RBC count ([2]; Day 55) was 5.3e+06 µL⁻¹. It also gave a WBC count ([2]; Day 55) of 9000 µL⁻¹, a hemoglobin content ([2]; Day 55) of 12.0 g/dL and a monocytes ([2]; Day 55) of 4.6%. For the same substance, the neutrophils ([2]; Day 55) was 73%, the platelet count ([2]; Day 55) was 257 ×100/μL and the HCT ([2]; Day-5) was 44%. It also gave an MCH ([2]; Day-5) of 23.5 pg, an MCHC ([2]; Day-5) of 29.8 g/dL and an MCV ([2]; Day-5) of 79 fL. For the same substance, the RBC count ([2]; Day-5) was 5.5e+06 µL⁻¹, the WBC count ([2]; Day-5) was 11000 µL⁻¹ and the hemoglobin content ([2]; Day-5) was 13.0 g/dL. For the same substance, the monocytes ([2]; Day-5) was 2.7%, the neutrophils ([2]; Day-5) was 84% and the platelet count ([2]; Day-5) was 433 ×100/μL. The HCT ([2]; Day-14) was 41%, the MCH ([2]; Day-14) was 23.2 pg and the MCHC ([2]; Day-14) was 31.1 g/dL. The MCV ([2]; Day-14) was 75 fL, the RBC count ([2]; Day-14) was 5.5e+06 µL⁻¹ and the WBC count ([2]; Day-14) was 10000 µL⁻¹. For the same substance, the hemoglobin content ([2]; Day-14) was 12.8 g/dL, the monocytes ([2]; Day-14) was 2.0% and the neutrophils ([2]; Day-14) was 65%. The platelet count ([2]; Day-14) was 369 ×100/μL.

For “417003 (antisense TGGTGCACAGTTTCTGGCAG; 2-13-5 gapmer chemistry, further chemistry not given here) [compound 417003]”, the IC50 (human Factor 11 mRNA) was 1500 nM, the “percent inhibition of human Factor 11 mRNA relative to untreated control cells” value (human Factor 11 mRNA; 41.15 nM) was 31% and the “percent inhibition of human Factor 11 mRNA relative to untreated control cells” value (human Factor 11 mRNA; 123.457 nM) was 0%. The “percent inhibition of human Factor 11 mRNA relative to untreated control cells” value (human Factor 11 mRNA; 370.37 nM) was 15%, the “percent inhibition of human Factor 11 mRNA relative to untreated control cells” value (human Factor 11 mRNA; 1111.11 nM) was 43% and the “percent inhibition of human Factor 11 mRNA relative to untreated control cells” value (human Factor 11 mRNA; 3333.33 nM) was 84%. For the same substance, the “percent inhibition of human Factor 11 mRNA relative to untreated control cells” value (human Factor 11 mRNA; 10000 nM) was 92%, the “Percent change: Body weight” value [3] was −40% and the “Percent change in organ weight: Kidney” value [3] was “+25%”. The “Percent change in organ weight: Liver” value [3] was “+51%” and the “Percent change in organ weight: Spleen” value [3] was “+522%”.

In the case of “416999 (antisense GCACAGTTTCTGGCAGGCCT; 2-13-5 gapmer chemistry, further chemistry not given here) [compound 416999]”, the IC50 (human Factor 11 mRNA) is reported as 160 nM, the “percent inhibition of human Factor 11 mRNA relative to untreated control cells” value (human Factor 11 mRNA; 41.15 nM) is reported as 31% and the “percent inhibition of human Factor 11 mRNA relative to untreated control cells” value (human Factor 11 mRNA; 123.457 nM) is reported as 45%. For the same substance, the “percent inhibition of human Factor 11 mRNA relative to untreated control cells” value (human Factor 11 mRNA; 370.37 nM) was 62%, the “percent inhibition of human Factor 11 mRNA relative to untreated control cells” value (human Factor 11 mRNA; 1111.11 nM) was 78% and the “percent inhibition of human Factor 11 mRNA relative to untreated control cells” value (human Factor 11 mRNA; 3333.33 nM) was 94%. For the same substance, the “percent inhibition of human Factor 11 mRNA relative to untreated control cells” value (human Factor 11 mRNA; 10000 nM) was 97%, the “Percent change: Body weight” value [3] was −37% and the “Percent change in organ weight: Kidney” value [3] was “+71%”. For the same substance, the “Percent change in organ weight: Liver” value [3] was “+51%” and the “Percent change in organ weight: Spleen” value [3] was “+405%”.

In the case of “416838 (antisense GCAACCGGGATGATGAGTGC; 5-10-5 gapmer, further chemistry not given here) [compound 416838]”, the IC50 (human Factor 11 mRNA) is reported as 1200 nM, the “percent inhibition of human Factor 11 mRNA relative to untreated control cells” value (human Factor 11 mRNA; 41.15 nM) is reported as 12% and the “percent inhibition of human Factor 11 mRNA relative to untreated control cells” value (human Factor 11 mRNA; 123.457 nM) is reported as 9%. For the same substance, the “percent inhibition of human Factor 11 mRNA relative to untreated control cells” value (human Factor 11 mRNA; 370.37 nM) was 28%, the “percent inhibition of human Factor 11 mRNA relative to untreated control cells” value (human Factor 11 mRNA; 1111.11 nM) was 40% and the “percent inhibition of human Factor 11 mRNA relative to untreated control cells” value (human Factor 11 mRNA; 3333.33 nM) was 77%. The “percent inhibition of human Factor 11 mRNA relative to untreated control cells” value (human Factor 11 mRNA; 10000 nM) was 88%, the “Percent change: Body weight” value [3] was −23% and the “Percent change in organ weight: Kidney” value [3] was −0.5%. For the same substance, the “Percent change in organ weight: Liver” value [3] was “+8%” and the “Percent change in organ weight: Spleen” value [3] was “+212%”.
